Reference: article PMC10914731, “Homo-BacPROTAC-induced degradation of ClpC1 as a strategy against drug-resistant mycobacteria” (Nature Communications, 2024)
Converted amounts (≈) assume the structure as drawn. “And” between values parts separate entries of the source, which are not always exact repeats. Equal entries are not always repeated. Where two headings read alike, the source gives them in different places. *1 amine or outer side, *2 acyl side, *3 side chain or, on linkers, in order; H or OH if unused. Where a SMILES comes first, the peptide text is derived from it. [ ]: non-standard residue; d: D form. X5 = C=CCn1cc(C[C@@H](C(=O)[*:2])N(C)[*:1])c2ccccc21; X7 = C=CCn1cc(C[C@H](N[*:1])C(=O)[*:2])c2ccccc21; NMeLeu(5-OH,4R) = CN[C@@H](C[C@@H](C)CO)C(=O)O; Phe(βR-OMe) = CO[C@H](c1ccccc1)[C@H](N)C(=O)O; NMeL = CN[C@@H](CC(C)C)C(=O)O

Columns and labels:
[1] = system: Mycobacterium fortuitum; test: microbe, parasite or virus in culture; format: cell-based
[2] = system: Mycobacterium abscessus; test: microbe, parasite or virus in culture; format: cell-based
[3] = system: Mycobacterium avium; test: microbe, parasite or virus in culture; format: cell-based
[4] = system: Mycobacterium intracellulare; test: microbe, parasite or virus in culture; format: cell-based
[5] = format: in vitro ADME, Rat; conditions: for Microsomal Stability Rat: clearance in microsomes
Experimental: (§1) The kinetics of compound degradation in liver microsomes is assessed in an assay with 1 µmol/l of compound and 0.5 mg/ml liver microsomes in a medium of 100 mM Tris-HCl pH 7.5, 6.5 mM MgCl2 and 1 mM NADPH at 37 °C. The reaction is stopped at multiple time points by adding acetonitrile. After centrifugation, the compound concentration is measured in the supernatants by high-performance liquid chromatography (HPLC) tandem mass spectrometry (MS/MS). The results are fitted to a first-order decay and the half-lives are converted to clearance (stated as % of the liver blood flow (%Qh)) using the well-stirred liver model.

[6] = format: in vitro ADME, Rat; conditions: for Hepatocyte Rat: clearance in hepatocytes
Experimental: (§2) Cryopreserved hepatocytes are incubated in an appropriate buffer system containing 50% species serum. Following an acclimation period (15–30 min) in an incubator (37 °C, 5−10% CO2, 85–95% humidity) the test compound is added to the hepatocyte suspension (pH 7.4, typical cell density of about 1 million cells/mL; final concentration of test compound is 1 µM, final DMSO concentration <0.05% v/v). The cells are incubated for up to 6 h and samples are taken at 6 different time points. Samples are then quenched with acetonitrile and pelleted by centrifugation. The remaining amount of parent compound in the supernatants is then analysed by HPLC-MS/MS. Clearance is calculated from compound half-lives using the well-stirred liver model and is converted to clearance stated as % of the liver blood flow (% Qh).

[7] = format: in vitro ADME, Human; conditions: for Hepatocyte Human: clearance in hepatocytes
Experimental: as §2

[8] = Microsomal stability, human; format: in vitro ADME; conditions: for Microsomal Stability Human: clearance in microsomes
Experimental: as §1

[9] = format: in vitro ADME, Mice
Experimental: as §1

[10] = Hepatocyte stability, mice; format: in vitro ADME; conditions: for Hepatocyte Mice: clearance in hepatocytes
Experimental: as §2

[11] = biological target: ClpC1 NTD protein (M. tuberculosis) (Mycobacterium tuberculosis, UniProt P9WPC9); test: biochemical; format: binding; conditions: for koff: read-out: koff ClpC1-NTD
[12] = system: Caco-2 monolayers; test: in vitro; conditions: for CACO permeability PEAB: apical to basolateral; for CACO permeability PEBA: basolateral to apical; for Caco-2 Int. Perm: mean value of P(A−B) and P(B−A)
Text: (§3) Supplementary Table 1. Structure-Activity Relationships part 1 (SPR, Caco-2) […]
(§4) SPR. Mean values ± standard deviation. Footnotes indicate the number of measurements performed for the respective compound: a) n = […]
(§5) [5] Permeability across Caco-2 monolayers in P(A−B): apical to basolateral and P(B−A): basolateral to apical direction (values reported in 10-
(§6) 6 cm s-1); efflux ratio = P(B−A)/P(A−B); Int. perm: mean value of P(A−B) and P(B−A). […] Influence of Trp-Nα methylation on P(A-B) and efflux
(§7) ratio. Bold: positive influence.

[13] = in vitro; conditions: human; for efflux ratio: Caco-2; for Papp A→B: apical to basolateral; for Papp B→A: basolateral to apical
Text: as §3, §4, §5, §6, §7

[14] = biological target: His6-tagged ClpC1-NTD substrate, M. smegmatis ClpC1P1P2 (UniProt A0R574+P9WPC9); test: biochemical; format: biochemical; conditions: Msm
[15] = biological target: ClpC1-NTD substrate, M. tuberculosis ClpC1P1P2 (Mycobacterium tuberculosis, UniProt P9WPC9); test: biochemical; format: biochemical; conditions: Mtb
[16] = Experiment 2, three replicate columns
[17] = SPR (Supplementary Table 1), read-out: KD ClpC1-NTD Mean ± SD
[18] = SPR, single independent measurements
[19] = SPR, single independent measurements, read-out: KD ClpC1-NTD
[20] = mean of the measurements, read-out: 1-Dmax, Mean
[21] = mean of the measurements, read-out: DC50, Mean

CC[C@H]1OC(=O)[C@H](C)[C@@H](O[C@H]2C[C@@](C)(OC)[C@@H](O)[C@H](C)O2)[C@H](C)[C@@H](O[C@@H]2O[C@H](C)C[C@H](N(C)C)[C@H]2O)[C@](C)(OC)C[C@@H](C)C(=O)[C@H](C)[C@@H](O)[C@]1(C)O [Clarithromycin, reference compound]
MIC (µg/ml) Mycobacterium fortuitum [1, 16]: 0.50 µg/mL (≈ 0.668 µM)
MIC ([1]; Experiment 2, three replicate columns, read-out: MIC (µM) Mycobacterium fortuitum): 0.67 µM
MIC ([1]; Mycolicibacterium fortuitum, Experiment 2, three replicate columns, read-out: MIC (µM) Mycobacterium fortuitum): 0.67 µM
MIC ([1]; Mycolicibacterium fortuitum, Experiment 2, three replicate columns, read-out: MIC (µg/ml) Mycobacterium fortuitum): 0.5 µg/mL
MIC ([1]; Mycolicibacterium fortuitum, mean ± SD, read-out: MIC Mycobacterium fortuitum): 0.7 µM
MIC (µg/ml) Mycobacterium abscessus [2, 16]: 0.50 µg/mL (≈ 0.668 µM)
MIC ([2]; Experiment 2, three replicate columns, read-out: MIC (µM) Mycobacterium abscessus): 0.67 µM
MIC ([2]; Mycobacteroides abscessus, Experiment 2, three replicate columns, read-out: MIC (µM) Mycobacterium abscessus): 0.67 µM
MIC ([2]; Mycobacteroides abscessus, Experiment 2, three replicate columns, read-out: MIC (µg/ml) Mycobacterium abscessus): 0.5 µg/mL
MIC ([2]; Mycobacteroides abscessus, mean ± SD, read-out: MIC Mycobacterium abscessus): 0.7 µM
MIC (µg/ml) Mycobacterium avium [3, 16]: 0.25 µg/mL (≈ 0.334 µM)
MIC ([3]; Experiment 2, three replicate columns, read-out: MIC (µM) Mycobacterium avium): 0.33 µM
MIC ([3]; Mycobacterium avium, Experiment 2, three replicate columns, read-out: MIC (µM) Mycobacterium avium): 0.33 µM
MIC ([3]; Mycobacterium avium, Experiment 2, three replicate columns, read-out: MIC (µg/ml) Mycobacterium avium): 0.25 µg/mL
MIC ([3]; Mycobacterium avium, mean ± SD, read-out: MIC Mycobacterium avium): 0.3 µM
MIC (µg/ml) Mycobacterium intracellulare [4, 16]: 0.13 µg/mL (≈ 0.174 µM)
MIC ([4]; Experiment 2, three replicate columns, read-out: MIC (µM) Mycobacterium intracellulare): 0.17 µM
MIC ([4]; Mycobacterium intracellulare, Experiment 2, three replicate columns, read-out: MIC (µM) Mycobacterium intracellulare): 0.17 µM
MIC ([4]; Mycobacterium intracellulare, Experiment 2, three replicate columns, read-out: MIC (µg/ml) Mycobacterium intracellulare): 0.13 µg/mL
MIC ([4]; Mycobacterium intracellulare, mean ± SD, read-out: MIC Mycobacterium intracellulare): 0.2 µM

C=CCn1cc(C[C@@H]2NC(=O)[C@H](C(C)C)NC(=O)[C@H](CC(C)C)N(C)C(=O)[C@H](C(C)C)NC(=O)[C@H]([C@H](OC)c3ccccc3)NC(=O)[C@H](C)NC(=O)[C@H](C[C@@H](C)CO)N(C)C2=O)c2ccccc21 [Compound 13] (cyclo(A[Phe(βR-OMe)]V[NMeL]V[X7][NMeLeu(5-OH,4R)]))
Microsomal Stability Rat QH [5]: >87.900%
Microsomal Stability Rat [5]: > 88 %Qh
Hepatocyte Stability Rat QH [6]: 65.282%
Hepatocyte Rat [6]: 65 %Qh
Hepatocyte Stability Human QH [7]: 18.968%
Hepatocyte Human [7]: 19 %Qh
Microsomal Stability Human QH [8]: >88.400%
Microsomal Stability Human [8]: > 88 %Qh
Microsomal Stability Mouse QH ([9]; Mouse): >88.400%
Microsomal Stability Mice ([9]; clearance in microsomes): > 88 %Qh
Hepatocyte Stability Mouse QH [10]: 58.852%
Hepatocyte Mice [10]: 59 %Qh
Kd [11, 17]: 3.6 ± 0.2 nM
koff ClpC1-NTD [11, 18]: 0.1 s⁻¹
Kd [11, 19]: 3.66 nM and 3.44 nM
koff [11, 18]: 0.07 s⁻¹
CACO permeability PEAB [12]: 2.4 ×10⁻⁶ cm/s
CACO permeability PEBA [12]: 18.999999999999998 ×10⁻⁶ cm/s
Caco-2 Int. Perm [12]: 10.7 10-6 cm s-1
efflux ratio [13]: 7.9
Papp A→B ([13]; Caco-2, CACO permeability PEAB): 4.5 ×10⁻⁶ cm/s
Papp B→A ([13]; Caco-2, CACO permeability PEBA): 33 ×10⁻⁶ cm/s

CO[C@H](c1ccccc1)[C@@H]1NC(=O)[C@H](C)NC(=O)[C@H](C[C@@H](C)CO)N(C)C(=O)[C@H](Cc2cn(Cc3cn(CCCCCn4cc(Cn5cc(C[C@H]6C(=O)N(C)[C@@H](C[C@@H](C)CO)C(=O)N[C@@H](C)C(=O)N[C@@H]([C@H](OC)c7ccccc7)C(=O)N[C@@H](C(C)C)C(=O)N(C)[C@@H](CC(C)C)C(=O)N[C@@H](C(C)C)C(=O)N6C)c6ccccc65)nn4)nn3)c3ccccc23)N(C)C(=O)[C@H](C(C)C)NC(=O)[C@H](CC(C)C)N(C)C(=O)[C@H](C(C)C)NC1=O [SI-57]
Hepatocyte Stability Rat QH [6]: 8.056%
Hepatocyte Rat [6]: 8 %Qh
Hepatocyte Human [7]: 12 %Qh
Hepatocyte Mice [10]: 15 %Qh
Kd [11, 17]: 1.6 ± 0.8 nM
koff ClpC1-NTD [11, 18]: 0.001 s⁻¹
Kd [11, 19]: 2.13 nM and 1 nM
koff [11, 18]: 0.002 s⁻¹
1-Dmax, single measurements ([14]; Measurement 1-6): 73.5% and 61.5% and 74.0%
1-Dmax (percent substrate remaining at maximal degradation) ([14]; Measurement 1-6, read-out: 1-Dmax, single measurements): 60.5%
1-Dmax (percent substrate remaining at maximal degradation) [14, 20]: 67%
DC50 [14, 21]: 23000 nM
1-Dmax, single measurements ([15]; Measurement 1-4): 68.4% and 44.2% and 52.6%
DC50 ([15]; Measurement 1-4, read-out: DC50, single measurements): 20900 nM and 18700 nM and 31500 nM
1-Dmax (percent substrate remaining at maximal degradation) [15, 20]: 55%
DC50 [15, 21]: 23700 nM
Caco-2 Int. Perm [12]: 1.5 10-6 cm s-1
Papp A→B ([13]; Caco-2, Caco-2 permeability P (A-B)): < 2.2 ×10⁻⁶ cm/s
Papp B→A ([13]; Caco-2, Caco-2 permeability P (B-A)): < 0.7 ×10⁻⁶ cm/s

C=CCn1cc(C[C@H]2C(=O)N(C)[C@@H](C[C@@H](C)CO)C(=O)N[C@@H](C)C(=O)N[C@@H]([C@H](OC)c3ccccc3)C(=O)N[C@@H](C(C)C)C(=O)N(C)[C@@H](CC(C)C)C(=O)N[C@@H](C(C)C)C(=O)N2C)c2ccccc21 [SI-60] (cyclo(A[Phe(βR-OMe)]V[NMeL]V[X5][NMeLeu(5-OH,4R)]))
Microsomal Stability Rat QH [5]: >87.900%
Microsomal Stability Rat [5]: > 88 %Qh
Hepatocyte Stability Rat QH [6]: 57.215%
Hepatocyte Rat [6]: 57 %Qh
Hepatocyte Stability Human QH [7]: 50.176%
Hepatocyte Human [7]: 50 %Qh
Microsomal Stability Human QH [8]: >88.400%
Microsomal Stability Human [8]: > 88 %Qh
Hepatocyte Stability Mouse QH [10]: 61.367%
Hepatocyte Mice [10]: 61 %Qh
Kd [11, 17]: 8 ± 3 nM
koff ClpC1-NTD [11, 18]: 0.04 s⁻¹
Kd [11, 19]: 9.87 nM and 5.93 nM
koff [11, 18]: 0.03 s⁻¹
CACO permeability PEAB [12]: 35 ×10⁻⁶ cm/s
CACO permeability PEBA [12]: 88 ×10⁻⁶ cm/s
Permeability Correlation P (A-B) ([12]; influence of Trp-Nα methylation on P(A-B), matched pair, listed under the methylated partner): 14.6
Permeability Correlation Ratio ([12]; influence of Trp-Nα methylation on efflux ratio, matched pair, listed under the methylated partner): 3.2
Caco-2 Int. Perm [12]: 61.5 10-6 cm s-1
efflux ratio [13]: 2.5
Papp A→B ([13]; Caco-2, CACO permeability PEAB): 46 ×10⁻⁶ cm/s
Papp B→A ([13]; Caco-2, CACO permeability PEBA): 49 ×10⁻⁶ cm/s
